# Test results published in patent US20100113421A1, “NON-NUCLEOSIDE REVERSE TRANSCRIPTASE INHIBITORS” (priority 2006, published 2010).
# Where two headings read alike, the source gives them in different places.
# Experiments:
# [1] = system: mutant strain containing both the K103N and Y181C mutations; assay: Spread assay, mutant strain containing both K103N and Y181C; type: cell-based, HIV
# Procedure: Assays for the inhibition of acute HIV-1 infection of T-lymphoid cells (alternatively referred to herein as the “spread assay”) were conducted in accordance with Vacca, J. P. et al., Proc. Natl. Acad. Sci. USA 1994, 91: 4096. The assays (using 10% FBS) tested for inhibition of wild type HIV-1 and of HIV strains containing the Y181C or K103N mutation. […] (Note that the compound of Example 6 was tested only up to a 833 nM concentration and the CIC95 value was determined to be >833 nM. The compound of Example 78 was not tested in the Y1818C assay.) The compounds of Examples 1 to 119 (including Examples 70A and 70B) had CIC95 values of less than 1000 nanomolar in the assay employing the K103N mutant strain. In an analogous assay employing a mutant strain containing both the K103N and Y181C mutations, the compounds of Examples 70A, 70B and 78-115 had CIC95 values of less than 1000 nanomolar.
# [2] = system: HIV strain containing the Y181C mutation; assay: Spread assay, Y181C mutant strain; type: cell-based
# Procedure, shortened: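 Acute HIV-1 infection of T-lymphoid cells run in the presence of 10% FBS, […]; potency expressed as CIC95.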
# [3] = Human immunodeficiency virus 1, analogous spread assay, K103N and Y181C double mutant strain, read-out: CIC95
# [4] = Human immunodeficiency virus 1, spread assay, 10% FBS, Y181C mutant strain, read-out: CIC95
# [5] = Human immunodeficiency virus 1, read-out: CIC95
smiles,measurement,setting,value
"Cc1cc(C)cc(S(=O)(=O)c2c(C(N)=O)[nH]c(C(=O)N3CCCc4sccc4C3)c2C)c1 [Example 80, 3-[(3,5-Dimethylphenyl)sulfonyl]-4-methyl-5-(4,6,7,8-tetrahydro-5H-thieno[3,2-c]azepin-5-ylcarbonyl)-1H-pyrrole-2-carboxamide]",IC95,[1]; [3],< 1 µM
same,IC95,[2]; [4],< 8 µM
Cc1c(C(=O)N2CCCc3sc(S(C)(=O)=O)cc3C2)[nH]c(C(N)=O)c1S(=O)(=O)c1cc(Cl)cc(Cl)c1 [Example 97],IC95,[1]; [3],< 1 µM
same,IC95,[2]; [4],< 8 µM
"CC(C)c1c(C(=O)N(C)Cc2ccc3ncccc3c2Cl)[nH]c(C(N)=O)c1S(=O)(=O)c1ccccc1 [Example 70A, 3-isopropyl-N-methyl-4-(phenylsulfonyl)-N-[(5-chloroquinolin-6-yl)methyl]-1H-pyrrole-2,5-dicarboxamide]",IC95,[1]; [5],< 1 µM
same,IC95,[2]; [5],< 8 µM
"COc1ccc2c(c1)CN(C(=O)c1[nH]c(C(N)=O)c(S(=O)(=O)c3ccccc3)c1C)CCC2 [Example 91, 3-(phenylsulfonyl)-4-methyl-5-(8-methoxy-1,3,4,5-tetrahydro-2H-2-benzazepin-2-ylcarbonyl)-1H-pyrrole-2-carboxamide]",IC95,[1]; [3],< 1 µM
same,IC95,[2]; [4],< 8 µM
"Cc1c(C(=O)N2CCCc3ccc(O)cc3C2)[nH]c(C(N)=O)c1S(=O)(=O)c1cc(Cl)cc(Cl)c1 [Example 82, 3-[(3,5-dichlorophenyl)sulfonyl]-4-methyl-5-(8-hydroxy-1,3,4,5-tetrahydro-2H-2-benzazepin-2-ylcarbonyl)-1H-pyrrole-2-carboxamide]",IC95,[1]; [3],< 1 µM
same,IC95,[2]; [4],< 8 µM
"COc1ccc2c(c1)CCCN(C(=O)c1[nH]c(C(N)=O)c(S(=O)(=O)c3cc(Cl)cc(Cl)c3)c1C)C2 [Example 85, 3-[(3,5-dichlorophenyl)sulfonyl]-4-methyl-5-(7-methoxy-1,3,4,5-tetrahydro-2H-2-benzazepin-2-ylcarbonyl)-1H-pyrrole-2-carboxamide]",IC95,[1]; [3],< 1 µM
same,IC95,[2]; [4],< 8 µM
"CC(C)c1c(C(=O)N(C)Cc2ccnc(N)c2)[nH]c(C(N)=O)c1S(=O)(=O)c1cc(F)cc(F)c1 [Example 100, N5-[(2-aminopyridin-4-yl)methyl]-3-[(3,5-difluorophenyl)sulfonyl]-4-isopropyl-N5-methyl-1H-pyrrole-2,5-dicarboxamide]",IC95,[1]; [3],< 1 µM
same,IC95,[2]; [4],< 8 µM
"Cc1cc(C)cc(S(=O)(=O)c2c(C(N)=O)[nH]c(C(=O)N(C)Cc3cc(N)ncc3F)c2C)c1 [Example 103, N5-[(2-amino-5-fluoropyridin-4-yl)methyl]-3-[(3,5-dimethylphenyl)sulfonyl]-N5,4-dimethyl-1H-pyrrole-2,5-dicarboxamide]",IC95,[1]; [3],< 1 µM
same,IC95,[2]; [4],< 8 µM
CC(C)c1c(C(=O)N(C)Cc2cc(N)ncc2F)[nH]c(C(N)=O)c1S(=O)(=O)c1ccccc1 [Example 104],IC95,[1]; [3],< 1 µM
same,IC95,[2]; [4],< 8 µM
"COc1ccc2c(c1)CN(C(=O)c1[nH]c(C(N)=O)c(S(=O)(=O)c3cccc(F)c3)c1C)CCC2 [Example 93, 3-[(3-fluorophenyl)sulfonyl]-4-methyl-5-(8-methoxy-1,3,4,5-tetrahydro-2H-2-benzazepin-2-ylcarbonyl)-1H-pyrrole-2-carboxamide]",IC95,[1]; [3],< 1 µM
same,IC95,[2]; [4],< 8 µM
"Cc1cc(C)cc(S(=O)(=O)c2c(C(N)=O)[nH]c(C(=O)N(C)Cc3ccncc3F)c2C)c1 [Example 109, 3-[(3,5-dimethylphenyl)sulfonyl]-N5-[(3-fluoropyridin-4-yl)methyl]-N5,4-dimethyl-1H-pyrrole-2,5-dicarboxamide]",IC95,[1]; [3],< 1 µM
same,IC95,[2]; [4],< 8 µM
"CC(C)c1c(C(=O)N(C)Cc2cc3cccnc3cc2Cl)[nH]c(C(N)=O)c1S(=O)(=O)c1ccccc1 [Example 70B, 3-isopropyl-N-methyl-4-(phenylsulfonyl)-N-[(7-chloroquinolin-6-yl)methyl]-1H-pyrrole-2,5-dicarboxamide]",IC95,[1]; [5],< 1 µM
same,IC95,[2]; [5],< 8 µM
"Cc1c(C(=O)N2CCCc3cc(O)ccc3C2)[nH]c(C(N)=O)c1S(=O)(=O)c1cc(Cl)cc(Cl)c1 [Example 86, 3-[(3,5-dichlorophenyl)sulfonyl]-4-methyl-5-(7-hydroxy-1,3,4,5-tetrahydro-2H-2-benzazepin-2-ylcarbonyl)-1H-pyrrole-2-carboxamide]",IC95,[1]; [3],< 1 µM
same,IC95,[2]; [4],< 8 µM
"Cc1cc(C)cc(S(=O)(=O)c2c(C(N)=O)[nH]c(C(=O)N3CCCc4sc(S(C)(=O)=O)cc4C3)c2C)c1 [Example 98, 3-[(3,5-Dimethylphenyl)sulfonyl]-4-methyl-5-[(2-(methylsulfonyl)-4,6,7,8-tetrahydro-5H-thieno[3,2-c]azepin-5-yl)carbonyl]-1H-pyrrole-2-carboxamide]",IC95,[1]; [3],< 1 µM
same,IC95,[2]; [4],< 8 µM
"Cc1cc(C)cc(S(=O)(=O)c2c(C(N)=O)[nH]c(C(=O)N3CCCc4cc(O)ccc4C3)c2C)c1 [Example 88, 3-[(3,5-dimethylphenyl)sulfonyl]-4-methyl-5-(7-hydroxy-1,3,4,5-tetrahydro-2H-2-benzazepin-2-ylcarbonyl)-1H-pyrrole-2-carboxamide]",IC95,[1]; [3],< 1 µM
same,IC95,[2]; [4],< 8 µM
"Cc1c(C(=O)N2CCCc3sccc3C2)[nH]c(C(N)=O)c1S(=O)(=O)c1cc(Cl)cc(Cl)c1 [Example 84, 3-[(3,5-dichlorophenyl)sulfonyl]-4-methyl-5-(4,6,7,8-tetrahydro-5H-thieno[3,2-c]azepin-5-ylcarbonyl)-1H-pyrrole-2-carboxamide]",IC95,[1]; [3],< 1 µM
same,IC95,[2]; [4],< 8 µM
"Cc1cc(C)cc(S(=O)(=O)c2c(C(N)=O)[nH]c(C(=O)N(C)Cc3c(F)cncc3F)c2C)c1 [Example 111, N5-[(3,5-difluoropyridin-4-yl)methyl]-3-[(3,5-dimethylphenyl)sulfonyl]-N5,4-dimethyl-1H-pyrrole-2,5-dicarboxamide]",IC95,[1]; [3],< 1 µM
same,IC95,[2]; [4],< 8 µM
"Cc1c(C(=O)N2CCCc3ccccc3C2)[nH]c(C(N)=O)c1S(=O)(=O)c1cc(Cl)cc(Cl)c1 [Example 83, 3-[(3,5-dichlorophenyl)sulfonyl]-4-methyl-5-(1,3,4,5-tetrahydro-2H-2-benzazepin-2-ylcarbonyl)-1H-pyrrole-2-carboxamide]",IC95,[1]; [3],< 1 µM
same,IC95,[2]; [4],< 8 µM
"COc1ccc2c(c1)CN(C(=O)c1[nH]c(C(N)=O)c(S(=O)(=O)c3cc(Cl)cc(Cl)c3)c1C)CCC2 [Example 81, 3-[(3,5-dichlorophenyl)sulfonyl]-4-methyl-5-(8-methoxy-1,3,4,5-tetrahydro-2H-2-benzazepin-2-ylcarbonyl)-1H-pyrrole-2-carboxamide]",IC95,[1]; [3],< 1 µM
same,IC95,[2]; [4],< 8 µM
"CC(C)c1c(C(=O)N(C)Cc2c(F)cncc2F)[nH]c(C(N)=O)c1S(=O)(=O)c1ccccc1 [Example 112, N2-[(3,5-difluoropyridin-4-yl)methyl]-3-isopropyl-N2-methyl-4-(phenylsulfonyl)-1H-pyrrole-2,5-dicarboxamide]",IC95,[1]; [3],< 1 µM
same,IC95,[2]; [4],< 8 µM
"CC(C)c1c(C(=O)N(C)Cc2ccnc(N)c2)[nH]c(C(N)=O)c1S(=O)(=O)c1cccc(F)c1 [Example 99, N5-[(2-aminopyridin-4-yl)methyl]-3-[(3-fluorophenyl)sulfonyl]-4-isopropyl-N5-methyl-1H-pyrrole-2,5-dicarboxamide]",IC95,[1]; [3],< 1 µM
same,IC95,[2]; [4],< 8 µM
"Cc1c(C(=O)N2CCCc3ccc(O)cc3C2)[nH]c(C(N)=O)c1S(=O)(=O)c1cccc(F)c1 [Example 94, 3-[(3-fluorophenyl)sulfonyl]-4-methyl-5-(8-hydroxy-1,3,4,5-tetrahydro-2H-2-benzazepin-2-ylcarbonyl)-1H-pyrrole-2-carboxamide]",IC95,[1]; [3],< 1 µM
same,IC95,[2]; [4],< 8 µM
"CC(C)c1c(C(=O)N(C)Cc2cc(Cl)ncc2F)[nH]c(C(N)=O)c1S(=O)(=O)c1ccccc1 [Example 114, N2-[(2-chloro-5-fluoropyridin-4-yl)methyl]-3-isopropyl-N2-methyl-4-(phenylsulfonyl)-1H-pyrrole-2,5-dicarboxamide]",IC95,[1]; [3],< 1 µM
same,IC95,[2]; [4],< 8 µM
"Cc1c(C(=O)N2CCCc3ccc(O)cc3C2)[nH]c(C(N)=O)c1S(=O)(=O)c1ccccc1 [Example 92, 3-(phenylsulfonyl)-4-methyl-5-(8-hydroxy-1,3,4,5-tetrahydro-2H-2-benzazepin-2-ylcarbonyl)-1H-pyrrole-2-carboxamide]",IC95,[1]; [3],< 1 µM
same,IC95,[2]; [4],< 8 µM
"Cc1cc(C)cc(S(=O)(=O)c2c(C(N)=O)[nH]c(C(=O)N3CCCc4ccccc4C3)c2C)c1 [Example 79, 4-Methyl-3-(3,5-dimethylphenylsulfonyl)-5-(1,3,4,5-tetrahydro-2H-2-benzazepine-2-ylcarbonyl)-1H-pyrrole-2-carboxamide]",IC95,[1]; [3],< 1 µM
same,IC95,[2]; [4],< 8 µM
"Cc1cc(C)cc(S(=O)(=O)c2c(C(N)=O)[nH]c(C(=O)N(C)Cc3cc(Cl)ncc3F)c2C)c1 [Example 113, N5-[(2-chloro-5-fluoropyridin-4-yl)methyl]-3-[(3,5-dimethylphenyl)sulfonyl]-N5,4-dimethyl-1H-pyrrole-2,5-dicarboxamide]",IC95,[1]; [3],< 1 µM
same,IC95,[2]; [4],< 8 µM
"Cc1cc(C)cc(S(=O)(=O)c2c(C(N)=O)[nH]c(C(=O)N(C)Cc3ccnc(N)c3)c2C(C)C)c1 [Example 102, N5-[(2-aminopyridin-4-yl)methyl]-3-[(3,5-dimethylphenyl)sulfonyl]-4-isopropyl-N5-methyl-1H-pyrrole-2,5-dicarboxamide]",IC95,[1]; [3],< 1 µM
same,IC95,[2]; [4],< 8 µM
